Reference: US9505767B2, “Pyrazolo[1,5-A]pyrimidin-7(4H)-onehistone demethylase inhibitors” (Genentech, Inc., priority 2013, dated 2016)

Molecular target: T1, KDM5A (Homo sapiens, UniProt P29375)
T1 construct: Full length recombinant Flag tagged KDM5A protein was purified from Sf9 insect cells; Flag; made in house; host or cells: Sf9 insect cells
Test: KDM5A Demethylase Assay (TR-FRET Assay-B)
Assay type: biochemical
Details: full length recombinant Flag tagged KDM5A, 2 nM, TrisCl pH 7.4, 3.0 μM α-ketoglutarate, read-out: B KDM5A HTRF (IC50)
Description: Full length recombinant Flag tagged KDM5A protein was purified from Sf9 insect cells. The demethylation reaction buffer contained 50 mM TrisCl pH 7.4, 0.01% Triton X-100, 0.025 mg/mL BSA, 1 mM ascorbate, 2 mM TCEP, 3.0 μM α-ketoglutarate, and 50 μM Fe2(NH4)2(SO4)2. […] After a one hour incubation assays were read on a Perkin-Elmer Envision equipped with a laser source and appropriate filters.

T1 sequence (P29375 whole entry): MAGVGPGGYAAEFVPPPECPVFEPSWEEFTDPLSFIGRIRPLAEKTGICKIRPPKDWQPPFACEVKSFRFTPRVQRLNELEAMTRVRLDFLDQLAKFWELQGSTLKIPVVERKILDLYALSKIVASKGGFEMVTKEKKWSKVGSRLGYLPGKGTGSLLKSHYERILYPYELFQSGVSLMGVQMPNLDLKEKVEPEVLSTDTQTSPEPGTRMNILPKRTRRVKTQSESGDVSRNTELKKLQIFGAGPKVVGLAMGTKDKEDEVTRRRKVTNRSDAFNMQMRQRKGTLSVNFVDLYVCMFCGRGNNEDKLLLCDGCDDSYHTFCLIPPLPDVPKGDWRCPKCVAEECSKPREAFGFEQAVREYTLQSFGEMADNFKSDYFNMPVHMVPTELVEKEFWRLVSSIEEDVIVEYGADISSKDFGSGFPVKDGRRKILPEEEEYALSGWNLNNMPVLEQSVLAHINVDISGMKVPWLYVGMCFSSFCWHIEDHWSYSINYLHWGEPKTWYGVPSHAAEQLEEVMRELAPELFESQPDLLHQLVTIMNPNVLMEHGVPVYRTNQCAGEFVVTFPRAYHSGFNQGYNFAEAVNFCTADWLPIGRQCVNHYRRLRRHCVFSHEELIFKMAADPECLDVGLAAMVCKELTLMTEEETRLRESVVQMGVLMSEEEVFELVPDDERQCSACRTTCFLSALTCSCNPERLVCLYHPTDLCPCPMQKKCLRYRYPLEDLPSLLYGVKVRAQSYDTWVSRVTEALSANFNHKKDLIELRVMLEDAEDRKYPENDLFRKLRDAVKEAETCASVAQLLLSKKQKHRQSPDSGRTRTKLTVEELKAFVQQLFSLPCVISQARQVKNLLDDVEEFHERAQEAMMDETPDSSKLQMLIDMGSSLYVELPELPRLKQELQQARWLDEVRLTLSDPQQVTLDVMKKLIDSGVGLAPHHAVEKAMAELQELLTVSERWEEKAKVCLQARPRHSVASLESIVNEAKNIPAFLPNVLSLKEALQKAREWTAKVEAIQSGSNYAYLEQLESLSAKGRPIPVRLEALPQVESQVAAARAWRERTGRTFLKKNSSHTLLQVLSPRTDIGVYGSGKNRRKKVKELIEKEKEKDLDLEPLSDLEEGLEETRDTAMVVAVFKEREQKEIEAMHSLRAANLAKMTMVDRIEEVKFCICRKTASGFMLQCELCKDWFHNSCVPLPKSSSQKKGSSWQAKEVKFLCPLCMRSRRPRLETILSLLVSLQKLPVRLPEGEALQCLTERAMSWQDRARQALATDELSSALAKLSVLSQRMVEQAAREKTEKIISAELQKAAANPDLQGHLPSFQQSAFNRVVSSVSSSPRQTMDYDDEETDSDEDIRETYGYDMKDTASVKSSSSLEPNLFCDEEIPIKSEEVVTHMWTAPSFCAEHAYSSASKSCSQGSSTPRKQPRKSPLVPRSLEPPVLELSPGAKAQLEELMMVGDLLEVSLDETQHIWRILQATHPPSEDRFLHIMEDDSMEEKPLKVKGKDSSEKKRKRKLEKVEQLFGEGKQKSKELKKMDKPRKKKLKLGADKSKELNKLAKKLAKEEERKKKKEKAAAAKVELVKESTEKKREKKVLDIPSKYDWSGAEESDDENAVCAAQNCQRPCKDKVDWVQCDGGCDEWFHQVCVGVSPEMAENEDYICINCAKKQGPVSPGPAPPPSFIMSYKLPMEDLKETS

Structure (SMILES)	IC50
CCc1c(C)[nH]c2c(-c3cnn(-c4ncc(C)cn4)c3)cnn2c1=O [Example 2, 6-ethyl-5-methyl-3-(1-(5-methylpyrimidin-2-yl)-1H-pyrazol-4-yl)pyrazolo[1,5-a]pyrimidin-7(4H)-one]	16.1 nM
CCc1c(C)[nH]c2c(-c3cnn(-c4ccncn4)c3)cnn2c1=O [Example 3, 6-ethyl-5-methyl-3-(1-(pyrimidin-4-yl)-1H-pyrazol-4-yl)pyrazolo[1,5-a]pyrimidin-7(4H)-one]	158 nM
CCc1c(C)[nH]c2c(-c3cnn(-c4nccc(N(C)C)n4)c3)cnn2c1=O [Example 4, 3-(1-(4-(dimethylamino)pyrimidin-2-yl)-1H-pyrazol-4-yl)-6-ethyl-5-methylpyrazolo[1,5-a]pyrimidin-7(4H)-one]	47 nM
CCc1c(C)[nH]c2c(-c3cnn(-c4ncc(N(C)C)cn4)c3)cnn2c1=O [Example 5, 3-(1-(5-(dimethylamino)pyrimidin-2-yl)-1H-pyrazol-4-yl)-6-ethyl-5-methylpyrazolo[1,5-a]pyrimidin-7(4H)-one]	60.3 nM
CCc1c(C)[nH]c2c(-c3cnn(-c4nccc(N5CCCC5)n4)c3)cnn2c1=O [Example 6, 6-ethyl-5-methyl-3-(1-(4-(pyrrolidin-1-yl)pyrimidin-2-yl)-1H-pyrazol-4-yl)pyrazolo[1,5-a]pyrimidin-7(4H)-one]	52.9 nM
CCc1c(C)[nH]c2c(-c3cnn(-c4nccc(OC)n4)c3)cnn2c1=O [Example 7, 6-ethyl-3-(1-(4-methoxypyrimidin-2-yl)-1H-pyrazol-4-yl)-5-methylpyrazolo[1,5-a]pyrimidin-7(4H)-one]	8.6 nM
CCc1c(C)[nH]c2c(-c3cnn(-c4nccs4)c3)cnn2c1=O [Example 8, 6-ethyl-5-methyl-3-(1-(thiazol-2-yl)-1H-pyrazol-4-yl)pyrazolo[1,5-a]pyrimidin-7(4H)-one]	136 nM
CCc1c(C)[nH]c2c(-c3cnn(-c4cc(C5CC5)ccn4)c3)cnn2c1=O [Example 9, 3-(1-(4-cyclopropylpyridin-2-yl)-1H-pyrazol-4-yl)-6-ethyl-5-methylpyrazolo[1,5-a]pyrimidin-7(4H)-one]	16.6 nM
CCc1c(C)[nH]c2c(-c3cnn(-c4cc(C(=O)O)ccn4)c3)cnn2c1=O [Example 10, 2-(4-(6-ethyl-5-methyl-7-oxo-4,7-dihydropyrazolo[1,5-a]pyrimidin-3-yl)-1H-pyrazol-1-yl)isonicotinic acid]	201 nM
CCc1c(C)[nH]c2c(-c3cnn(-c4cc(CO)ccn4)c3)cnn2c1=O [Example 11, 6-ethyl-3-(1-(4-(hydroxymethyl)pyridin-2-yl)-1H-pyrazol-4-yl)-5-methylpyrazolo[1,5-a]pyrimidin-7(4H)-one]	2.3 nM
CCc1c(C)[nH]c2c(-c3cnn(-c4ccc(CO)cn4)c3)cnn2c1=O [Example 12, 6-ethyl-3-(1-(5-(hydroxymethyl)pyridin-2-yl)-1H-pyrazol-4-yl)-5-methylpyrazolo[1,5-a]pyrimidin-7(4H)-one]	31.3 nM
CCc1c(C)[nH]c2c(-c3cnn(-c4cc(Cl)ccn4)c3)cnn2c1=O [Example 13, 3-(1-(4-chloropyridin-2-yl)-1H-pyrazol-4-yl)-6-ethyl-5-methylpyrazolo[1,5-a]pyrimidin-7(4H)-one]	66.1 nM
CCc1c(C)[nH]c2c(-c3cnn(-c4ncccn4)c3)cnn2c1=O [Example 14, 6-ethyl-5-methyl-3-(1-(pyrimidin-2-yl)-1H-pyrazol-4-yl)pyrazolo[1,5-a]pyrimidin-7(4H)-one]	16.5 nM
CCc1c(C)[nH]c2c(-c3cnn(-c4cc(OC)ccn4)c3)cnn2c1=O [Example 15, 6-ethyl-3-(1-(4-methoxypyridin-2-yl)-1H-pyrazol-4-yl)-5-methylpyrazolo[1,5-a]pyrimidin-7(4H)-one]	66.1 nM
CCc1c(C)[nH]c2c(-c3cnn(-c4cc(N(C)C)ccn4)c3)cnn2c1=O [Example 16, 3-(1-(4-(dimethylamino)pyridin-2-yl)-1H-pyrazol-4-yl)-6-ethyl-5-methylpyrazolo[1,5-a]pyrimidin-7(4H)-one]	406 nM
CCc1c(C)[nH]c2c(-c3cnn(-c4cc(OCCO)ccn4)c3)cnn2c1=O [Example 17, 6-ethyl-3-(1-(4-(2-hydroxyethoxy)pyridin-2-yl)-1H-pyrazol-4-yl)-5-methylpyrazolo[1,5-a]pyrimidin-7(4H)-one]	14.1 nM
CCc1c(C)[nH]c2c(-c3cnn(-c4cc(OCCN)ccn4)c3)cnn2c1=O [Example 18, 3-(1-(4-(2-aminoethoxy)pyridin-2-yl)-1H-pyrazol-4-yl)-6-ethyl-5-methylpyrazolo[1,5-a]pyrimidin-7(4H)-one]	9.8 nM
Cc1[nH]c2c(-c3cnn(-c4ncccn4)c3)cnn2c(=O)c1C(C)C [Example 19, 6-isopropyl-5-methyl-3-(1-(pyrimidin-2-yl)-1H-pyrazol-4-yl)pyrazolo[1,5-a]pyrimidin-7(4H)-one]	5.7 nM
Cc1[nH]c2c(-c3cnn(-c4ccccn4)c3)cnn2c(=O)c1C(C)C [Example 20, 6-isopropyl-5-methyl-3-(1-(pyridin-2-yl)-1H-pyrazol-4-yl)pyrazolo[1,5-a]pyrimidin-7(4H)-one]	8.3 nM

Structure (SMILES)	IC50
Cc1ccc(-n2cc(-c3cnn4c(=O)c(C(C)C)c(C)[nH]c34)cn2)nc1 [Example 21, 6-isopropyl-5-methyl-3-(1-(5-methylpyridin-2-yl)-1H-pyrazol-4-yl)pyrazolo[1,5-a]pyrimidin-7(4H)-one]	9.1 nM
Cc1ccnc(-n2cc(-c3cnn4c(=O)c(C(C)C)c(C)[nH]c34)cn2)c1 [Example 22, 6-isopropyl-5-methyl-3-(1-(4-methylpyridin-2-yl)-1H-pyrazol-4-yl)pyrazolo[1,5-a]pyrimidin-7(4H)-one]	23.6 nM
Cc1ccnc(-n2cc(-c3cnn4c(=O)c(C(C)C)c(C)[nH]c34)cn2)n1 [Example 23, 6-isopropyl-5-methyl-3-(1-(4-methylpyrimidin-2-yl)-1H-pyrazol-4-yl)pyrazolo[1,5-a]pyrimidin-7(4H)-one]	54.3 nM
Cc1cnc(-n2cc(-c3cnn4c(=O)c(C(C)C)c(C)[nH]c34)cn2)nc1 [Example 24, 6-isopropyl-5-methyl-3-(1-(5-methylpyrimidin-2-yl)-1H-pyrazol-4-yl)pyrazolo[1,5-a]pyrimidin-7(4H)-one]	16.6 nM
Cc1[nH]c2c(-c3cnn(-c4ccc(CO)cn4)c3)cnn2c(=O)c1C(C)C [Example 25, 3-(1-(5-(hydroxymethyl)pyridin-2-yl)-1H-pyrazol-4-yl)-6-isopropyl-5-methylpyrazolo[1,5-a]pyrimidin-7(4H)-one]	6.6 nM
Cc1ccnc(-n2cc(-c3cnn4c(=O)c(C5CC5)c(C)[nH]c34)cn2)c1 [Example 28, 6-cyclopropyl-5-methyl-3-(1-(4-methylpyridin-2-yl)-1H-pyrazol-4-yl)pyrazolo[1,5-a]pyrimidin-7(6H)-one]	13.4 nM
Cc1[nH]c2c(-c3cnn(-c4ncccn4)c3)cnn2c(=O)c1C1CC1 [Example 29, 6-cyclopropyl-5-methyl-3-(1-(pyrimidin-2-yl)-1H-pyrazol-4-yl)pyrazolo[1,5-a]pyrimidin-7(6H)-one]	18.5 nM
Cc1ccnc(-n2cc(-c3cnn4c(=O)c(C5CC5)c(C)[nH]c34)cn2)n1 [Example 30, 6-cyclopropyl-5-methyl-3-(1-(4-methylpyrimidin-2-yl)-1H-pyrazol-4-yl)pyrazolo[1,5-a]pyrimidin-7(6H)-one]	4.8 nM
Cc1cnc(-n2cc(-c3cnn4c(=O)c(C5CC5)c(C)[nH]c34)cn2)nc1 [Example 31, 6-cyclopropyl-5-methyl-3-(1-(5-methylpyrimidin-2-yl)-1H-pyrazol-4-yl)pyrazolo[1,5-a]pyrimidin-7(6H)-one]	48.7 nM
Cc1[nH]c2c(-c3cnn(-c4ccc(CO)cn4)c3)cnn2c(=O)c1C1CC1 [Example 32, 6-cyclopropyl-3-(1-(5-(hydroxymethyl)pyridin-2-yl)-1H-pyrazol-4-yl)-5-methylpyrazolo[1,5-a]pyrimidin-7(6H)-one]	7.9 nM
CCc1c(C)[nH]c2c(-c3cnn(C(C)=O)c3)cnn2c1=O [Example 33, 3-(1-acetyl-1H-pyrazol-4-yl)-6-ethyl-5-methylpyrazolo[1,5-a]pyrimidin-7(4H)-one]	196 nM
CCc1c(C)[nH]c2c(-c3cnn(C(=O)N(C)C)c3)cnn2c1=O [Example 34, 4-(6-ethyl-5-methyl-7-oxo-4,7-dihydropyrazolo[1,5-a]pyrimidin-3-yl)-N,N-dimethyl-1H-pyrazole-1-carboxamide]	4180 nM
CCc1c(C)[nH]c2c(-c3cnn(C(=O)C(C)(C)C)c3)cnn2c1=O [Example 35, 6-ethyl-5-methyl-3-(1-pivaloyl-1H-pyrazol-4-yl)pyrazolo[1,5-a]pyrimidin-7(4H)-one]	543 nM
CCc1c(C)[nH]c2c(-c3cnn(C(=O)OC)c3)cnn2c1=O [Example 36, Methyl 4-(6-ethyl-5-methyl-7-oxo-4,7-dihydropyrazolo[1,5-a]pyrimidin-3-yl)-1H-pyrazole-1-carboxylate]	1000 nM
CCc1[nH]c2c(-c3cnn(-c4ccccn4)c3)cnn2c(=O)c1C [Example 37, 5-ethyl-6-methyl-3-(1-(pyridin-2-yl)-1H-pyrazol-4-yl)pyrazolo[1,5-a]pyrimidin-7(4H)-one]	335 nM
Cc1c(C(C)C)[nH]c2c(-c3cnn(-c4ccccn4)c3)cnn2c1=O [Example 38, 5-isopropyl-6-methyl-3-(1-(pyridin-2-yl)-1H-pyrazol-4-yl)pyrazolo[1,5-a]pyrimidin-7(4H)-one]	1000 nM
Cc1c(C2CC2)[nH]c2c(-c3cnn(-c4ccccn4)c3)cnn2c1=O [Example 39, 5-cyclopropyl-6-methyl-3-(1-(pyridin-2-yl)-1H-pyrazol-4-yl)pyrazolo[1,5-a]pyrimidin-7(4H)-one]	624 nM
COc1c(C)[nH]c2c(-c3cnn(-c4ccccn4)c3)cnn2c1=O [Example 40, 6-methoxy-5-methyl-3-(1-(pyridin-2-yl)-1H-pyrazol-4-yl)pyrazolo[1,5-a]pyrimidin-7(4H)-one]	101 nM
